Laboratory results: US20040234972A1, “Method for identifying and purifying smooth muscle progenitor cells” (priority 2001, published 2004)

Tests used:
P19 cells = test: RA-induced SMC differentiation of parental P19 cells; assay type: cell-based, mouse; settings: within 4 days
Experimental: P19 cells were obtained from American Type Culture Collection (CRL-1825). Cells were maintained in α-minimum essential medium (α-MEM, Sigma, M0644) supplemented with 7.5% fetal bovine serum (FBS), 200 μg/ml L-glutamine and penicillin/streptomycin (Lifetechnologies). For transfection and differentiation induction experiments, P19 cell cultures less than 6 passages from the initial culture obtained from ATCC were used. […] Cells were trypsinized and plated in a 10 cm dish in α-MEM containing 7.5% FBS and 1 μmol/L all trans-retinoic acid (Sigma, R2625) at a density of 10,000 cells/cm^2 (day 0). The culture medium was replaced once on day 2. On day 3, RA was removed from the culture medium. On day 4, cells were trypsinized and plated in two 10 cm dishes in the medium containing 0.5 ng/ml puromycin (Clontech). Except otherwise noted, samples for various analyses were prepared from cells treated with puromycin for two days. During puromycin selection, the medium was replaced every day.

A404 cells = test: RA-induced SMC differentiation of A404 cells, immunocytochemical staining; assay type: cell-based, mouse
Experimental: The culture methods for SMC differentiation are outlined in FIG. 1. Cells were trypsinized and plated in a 10 cm dish in α-MEM containing 7.5% FBS and 1 μmol/L all trans-retinoic acid (Sigma, R2625) at a density of 10,000 cells/cm^2 (day 0). The culture medium was replaced once on day 2. On day 3, RA was removed from the culture medium. On day 4, cells were trypsinized and plated in two 10 cm dishes in the medium containing […] puromycin (Clontech). Except otherwise noted, samples for various analyses were prepared from cells treated with puromycin for two days. During puromycin selection, the medium was replaced every day.
Western blot analysis was performed as previously described Regan et al., J. Clin Invest. 2000; 106:1139-47. SM-MHC expression was assessed using a rabbit anti-chicken SM-MHC antibody (1:200,000, a gift from Dr. U. Groschel-Stewart). The specificity of this antibody for mouse MHC isoforms has been thoroughly characterized. The antibody was not reactive with nonmuscle MHCs in Western blotting. Immnunocytochemical staining was performed using Vectastain ABC-AP kit (Vector Laboratories). Antibodies and dilutions used were 1:1000 anti-SM α-actin antibody (Sigma), 1:500 anti-SM-MHC antibody, and 1:1000 anti-neuron-specific β-tubulin antibody (TUJ1, Berkeley Antibody Company).

[1] = RA-treated A404 cells, after 2-days of puromycin treatment

SMILES	cells estimated to differentiate into SMCs (P19 cells)	α-actin negative neuron-like cells, fraction of total cell population (A404 cells; by 4 days after RA treatment, no puromycin)	fraction of total A404 cell population stained positively for SM α-actin (A404 cells; by 4 days following RA treatment, no puromycin)	cells positive for TUJ1 (A404 cells; [1])	fraction of neuron-like cells (A404 cells; [1])	number of neuronal cells (A404 cells; RA-treated A404 cells, five-days of puromycin treatment)	cells stained positively for both SM α-actin and SM-MHC (A404 cells; RA-treated A404 cells, following 2 to 5-days treatment with puromycin)
CC1=C(/C=C/C(C)=C/C=C/C(C)=C/C(=O)O)C(C)(C)CCC1 [RA, all trans-retinoic acid]	1-5%	10-20%	> 80%				
COc1ccc(C[C@H](N)C(=O)N[C@H]2[C@@H](O)[C@H](n3cnc4c(N(C)C)ncnc43)O[C@@H]2CO)cc1 [puromycin]				< 0.1%	5-10%	less than 5%	> 90%
